Experimental data from PubChem BioAssay AID1259411 (Chemical Carcinogenesis Research Information System (CCRIS), 2018).
Active and inactive are the calls of the source. How the calls were made is not given here.

Tested on: rodent carcinogenicity bioassays, tumor incidence
Test: CCRIS carcinogenicity studies
Summary of the method: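 Archive of carcinogenicity, mutagenicity, tumor promotion and tumor inhibition results drawn from journals, NCI reports and other sources, expert-reviewed; covers 1985-2011 and is no longer updated.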

Measured: carcinogen call

[Cl][Cd][Cl]
inactive: Species: HAMSTER, Strain/Sex: SYRIAN/FEMALE, Route: INHALATION, Dose: 0, 30 UG/M3 19 HR/D 5 D/WK FOR 65 WK FOR A TOTAL CADMIUM DOSE OF 0, 180 MG/M3 (STUDY DURATION: 76 WK), Dose: 0, 30 UG/M3 19 HR/D 5 D/WK FOR 65 WK FOR A TOTAL CADMIUM DOSE OF 0, 180 MG/M3 (STUDY DURATION: 76 WK) inactive; negative | Species: HAMSTER, Strain/Sex: SYRIAN/MALE, Route: INHALATION, Dose: 0, 30 UG/M3 19 HR/D 5 D/WK FOR 65 WK FOR A TOTAL CADMIUM DOSE OF 0, 180 MG/M3 (STUDY DURATION: 113 WK), Dose: 0, 30 UG/M3 19 HR/D 5 D/WK FOR 65 WK FOR A TOTAL CADMIUM DOSE OF 0, 180 MG/M3 (STUDY DURATION: 113 WK) inactive; negative | Species: MOUSE, Strain/Sex: BALB/MALE, Route: SUBCUTANEOUS, Dose: 0, 20 UMOL/KG ONCE (STUDY DURATION: 104 WK) inactive; negative | Species: MOUSE, Strain/Sex: DBA/MALE, Route: SUBCUTANEOUS, Dose: 0, 40 UMOL/KG ONCE (STUDY DURATION: 104 WK) inactive; negative | Species: MOUSE, Strain/Sex: SWISS/MALE, Route: SUBCUTANEOUS, Dose: 0, 40 UMOL/KG 1/WK FOR 16 WK BEGINNING AT 8 WK OF AGE (STUDY DURATION: 104 WK) inactive; negative
active: Species: MOUSE, Strain/Sex: BALB/MALE, Route: SUBCUTANEOUS, Dose: 0, 20 UMOL/KG 1/WK FOR 16 WK (STUDY DURATION: 104 WK), Tumor Site: Type of Lesion: HEMATOPOIETIC SYSTEM: TUMOR active; positive | Species: MOUSE, Strain/Sex: CD-1/MALE, Route: SUBCUTANEOUS, Dose: 0, 0.03 MMOL/KG BW (5.5 MG/KG BW), SINGLE DOSE, Tumor Site: Type of Lesion: TESTES: INTERSTITIAL CELL TUMOR active; positive | Species: MOUSE, Strain/Sex: CD-1/MALE, Route: SUBCUTANEOUS, Dose: 5.5 MG/KG ONCE, Tumor Site: Type of Lesion: TESTES: INTERSTITIAL CELL TUMOR active; positive | Species: MOUSE, Strain/Sex: DBA/MALE, Route: SUBCUTANEOUS, Dose: 0, 40 UMOL/KG 1/WK FOR 16 WK (STUDY DURATION: 104 WK), Tumor Site: Type of Lesion: HEMATOPOIETIC SYSTEM: LYMPHOMA active; positive | Species: MOUSE, Strain/Sex: NFS/MALE, Route: SUBCUTANEOUS, Dose: 0, 40 UMOL/KG 1/WK FOR 16 WK (STUDY DURATION: 104 WK), Tumor Site: Type of Lesion: INJECTION SITE: TUMOR, LIVER: HEPATOCELLULAR ADENOMA OR CARCINOMA active; positive | Species: MOUSE, Strain/Sex: NFS/MALE, Route: SUBCUTANEOUS, Dose: 0, 40 UMOL/KG ONCE (STUDY DURATION: 104 WK), Tumor Site: Type of Lesion: LUNG: ADENOMA OR CARCINOMA active; positive | Species: MOUSE, Strain/Sex: SWISS/MALE, Route: SUBCUTANEOUS, Dose: 0, 40 UMOL/KG ONCE AT 8 WK OF AGE (STUDY DURATION: 104 WK), Tumor Site: Type of Lesion: ADRENAL GLAND: ADENOMA active; positive | Species: RAT, Strain/Sex: CS/MALE, Route: INTRAPROSTATIC, Dose: 0, 0.04 ML OF 0.1 MOLAR SOLUTION (0.73 MG) ONCE (STUDY DURATION: 250 D), Tumor Site: Type of Lesion: PROSTATE: CARCINOMA active; positive | Species: RAT, Strain/Sex: F344/MALE, Route: SUBCUTANEOUS, Dose: 0, 3 UMOL/KG BW ONCE, THEN 30 UMOL/KG BW 1X/WK FOR 17 WK BEGINNING 1 WK POST INITIAL DOSE (STUDY DURATION: 18 WK), Tumor Site: Type of Lesion: INJECTION SITE SARCOMA active; positive | Species: RAT, Strain/Sex: F344/MALE, Route: SUBCUTANEOUS, Dose: 0, 10, 20, 30 UMOL/KG BW 1X/WK FOR 18 WK (STUDY DURATION: 18 WK), Dose: 0, 10, 20, 30 UMOL/KG BW 1X/WK FOR 18 WK (STUDY DURATION: 18 WK), Tumor Site: Type of Lesion: INJECTION SITE SARCOMA active; positive | Species: RAT, Strain/Sex: F344/MALE, Route: SUBCUTANEOUS, Dose: 0, 30 UMOL/KG IN DORSAL THORACIC MIDLINE AREA ONCE (STUDY DURATION: 90 WK), Tumor Site: Type of Lesion: INJECTION SITE: SARCOMA, FIBROSARCOMA active; positive | Species: RAT, Strain/Sex: WISTAR/FEMALE, Route: INHALATION, Dose: 0, 30 UG/M3 22 HR/D 7 D/WK FOR 18 MO (STUDY DURATION: 31 MO), Tumor Site: Type of Lesion: LUNG: ALVEOLAR/BRONCHIOLAR ADENOMA, ADENOCARCINOMA active; positive | Species: RAT, Strain/Sex: WISTAR/FEMALE, Route: INHALATION, Dose: 0, 30 UG/M3 22 HR/D 7 D/WK FOR 18 MO (STUDY DURATION: 31 MO), Tumor Site: Type of Lesion: LUNG: TUMOR active; positive | Species: RAT, Strain/Sex: WISTAR/FEMALE, Route: INHALATION, Dose: 0, 30 UG/M3 AEROSOL 22 HR/D 7 D/WK FOR 18 MO (STUDY DURATION: 31 MO), Tumor Site: Type of Lesion: LUNG: ALVEOLAR/BRONCHIOLAR ADENOMA, SQUAMOUS CELL CARCINOMA active; positive | Species: RAT, Strain/Sex: WISTAR/FEMALE, Route: INHALATION, Dose: 0, 90 UG/M3 22 HR/D 7 D/WK FOR 6 MO (STUDY DURATION: 29 MO), Tumor Site: Type of Lesion: LUNG: ADENOCARCINOMA, SQUAMOUS CELL CARCINOMA active; positive | Species: RAT, Strain/Sex: WISTAR/FEMALE, Route: INHALATION, Dose: 0, 90 UG/M3 22 HR/D 7 D/WK FOR 6 MO (STUDY DURATION: 29 MO), Tumor Site: Type of Lesion: LUNG: TUMOR active; positive | Species: RAT, Strain/Sex: WISTAR/FEMALE, Route: INHALATION, Dose: 0, 90 UG/M3 AEROSOL 22 HR/D 7 D/WK FOR 6 MO (STUDY DURATION: 29 MO), Tumor Site: Type of Lesion: LUNG: ADENOCARCINOMA, SQUAMOUS CELL CARCINOMA active; positive | Species: RAT, Strain/Sex: WISTAR/MALE, Route: INHALATION, Dose: 0, 12.5, 25, 50 UG/M3 AEROSOL 23 HR/D 7 D/WK FOR 18 MO (STUDY DURATION: 31 MO), Dose: 0, 12.5, 25, 50 UG/M3 AEROSOL 23 HR/D 7 D/WK FOR 18 MO (STUDY DURATION: 31 MO), Tumor Site: Type of Lesion: LUNG: ADENOMA, ADENOCARCINOMA, EPIDERMOID CARCINOMA active; positive | Species: RAT, Strain/Sex: WISTAR/MALE, Route: INHALATION, Dose: 0, 30 MG/M3 AEROSOL 22 HR/D 7 D/WK FOR 18 MO (STUDY DURATION: 30 MO), Tumor Site: Type of Lesion: LUNG: ALVEOLAR/BRONCHIOLAR ADENOMA, ADENOCARCINOMA active; positive | Species: RAT, Strain/Sex: WISTAR/MALE, Route: INHALATION, Dose: 0, 30 UG/M3 22 HR/D 7 D/WK FOR 18 MO (STUDY DURATION: 30 MO), Tumor Site: Type of Lesion: LUNG: ALVEOLAR/BRONCHIOLAR ADENOMA, ADENOCARCINOMA active; positive | Species: RAT, Strain/Sex: WISTAR/MALE, Route: INHALATION, Dose: 0, 30 UG/M3 22 HR/D 7 D/WK FOR 18 MO (STUDY DURATION: 30 MO), Tumor Site: Type of Lesion: LUNG: TUMOR active; positive | Species: RAT, Strain/Sex: WISTAR/MALE, Route: INHALATION, Dose: 0, 90 UG/M3 22 HR/D 7 D/WK FOR 6 MO (STUDY DURATION: 30 MO), Tumor Site: Type of Lesion: LUNG: ALVEOLAR/BRONCHIOLAR ADENOMA, ADENOCARCINOMA, SQUAMOUS CELL CARCINOMA active; positive | Species: RAT, Strain/Sex: WISTAR/MALE, Route: INHALATION, Dose: 0, 90 UG/M3 22 HR/D 7 D/WK FOR 6 MO (STUDY DURATION: 30 MO), Tumor Site: Type of Lesion: LUNG: TUMOR active; positive | Species: RAT, Strain/Sex: WISTAR/MALE, Route: INHALATION, Dose: 0, 90 UG/M3 AEROSOL 22 HR/D 7 D/WK FOR 6 MO (STUDY DURATION: 30 MO), Tumor Site: Type of Lesion: LUNG: ALVEOLAR/BRONCHIOLAR, ADENOCARCINOMA, SQUAMOUS CELL CARCINOMA active; positive | Species: RAT, Strain/Sex: WISTAR/MALE, Route: SUBCUTANEOUS, Dose: 0, 0.03 MMOL/KG BW (5.5 MG/KG BW), SINGLE DOSE, Tumor Site: Type of Lesion: TESTES: INTERSTITIAL CELL TUMOR active; positive | Species: RAT, Strain/Sex: WISTAR/MALE, Route: SUBCUTANEOUS, Dose: 0, 3 UMOL/KG BW ONCE, THEN 30 UMOL/KG BW 1X/WK FOR 17 WK BEGINNING 1 WK POST INITIAL DOSE (STUDY DURATION: 18 WK), Tumor Site: Type of Lesion: INJECTION SITE SARCOMA active; positive | Species: RAT, Strain/Sex: WISTAR/MALE, Route: SUBCUTANEOUS, Dose: 0, 10, 20, 30 UMOL/KG BW 1X/WK FOR 18 WK (STUDY DURATION: 18 WK), Dose: 0, 10, 20, 30 UMOL/KG BW 1X/WK FOR 18 WK (STUDY DURATION: 18 WK), Tumor Site: Type of Lesion: INJECTION SITE SARCOMA active; positive | Species: RAT, Strain/Sex: WISTAR/MALE, Route: SUBCUTANEOUS, Dose: 5.5 MG/KG ONCE, Tumor Site: Type of Lesion: INJECTION SITE: SARCOMA, TESTES: INTERSTITIAL CELL TUMOR active; positive | Species: RAT, Strain/Sex: WISTAR, Route: SUBCUTANEOUS, Dose: 0, 0.03 MMOL/KG BW (5.5 MG/KG BW), SINGLE DOSE, OBSERVED 2 YR, Tumor Site: Type of Lesion: INJECTION SITE: SPINDLE CELL SARCOMA, TESTES: INTERSTITIAL CELL TUMOR active; positive | Species: RAT, Strain/Sex: WISTAR, Route: SUBCUTANEOUS, Dose: 0, 0.03 MMOL/KG BW (5.5 MG/KG BW), SINGLE DOSE, Tumor Site: Type of Lesion: INJECTION SITE: SARCOMA, TESTES: INTERSTITIAL CELL TUMOR active; positive | Species: RAT, Strain/Sex: WISTAR, Route: SUBCUTANEOUS, Dose: 0.02-0.03 MMOL/KG BW (3.7-5.5 MG/KG BW), SINGLE DOSE, Tumor Site: Type of Lesion: INJECTION SITE: FIBROSARCOMA, TESTES: INTERSTITIAL CELL TUMOR active; positive
